Results published in patent EP4371976B1, “IONIZABLE LIPIDS AND LIPID NANOPARTICLES CONTAINING THEREOF” (Certest Biotec, S.L., priority 2022, dated 2024).

Assays:
[1] = RNA encapsulation efficiency of LNPs by Quant-IT Ribogreen; type: physicochemical; settings: for Encaps. efficiency (%): LNPs with luciferase mRNA, ionizable lipid:non-cationic lipid:sterol:PEG-modified lipid 50:10:38.5:1.5, percentage of RNA entrapped in the LNP; for Encaps. efficiency: Table 8, LNP 50:10:38.5:1.5, luciferase mRNA
Method in brief: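 Ribogreen dye assay per manufacturer quantified encapsulated mRNA. Particles were made by adding mRNA in water to the ethanol phase, then 1:1 Tris dilution and overnight dialysis into Tris/15% sucrose; final mRNA set to 100 µg/ml.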

[2] = Size distribution, polydispersity and Z-potential of LNPs by dynamic light scattering (Malvern Zetasizer); type: physicochemical
Protocol: The LNP solution was then adjusted to a final concentration of mRNA of 100 µg/ml. Size distribution, polydispersity and Z-potential were measured by dynamic light scattering (DLS) using Malvern Zetasizer Advance Lab Blue Label. RNA encapsulation was assessed by Quant-IT® Ribogreen following the manufacturer's instructions.

[3] = Apparent pKa of LNPs comprising the ionizable lipid (Table 6); settings: standard formulation 50:10:38.5:1.5
Female BALB/c mice = experiment: Firefly luciferase expression (total flux, IVIS imaging) in mice after injection of mRNA-loaded LNPs; type: in vivo; settings: for Total Flux: Table 8, intramuscular, 5 µg luciferase mRNA in 50 µl, LNP 50:10:38.5:1.5; for protein expression in mice (transfection results): Figure 1 legend, LNPs containing RNA
Protocol: For in vivo administration, mRNA comprising in the 5' to 3' direction a sequence encoding for luciferase of SEQ ID NO:1, was encapsulated into LNPs following the procedure described in Hassett, K. J. et al., "Optimization of Lipid Nanoparticles for Intramuscular Administration of mRNA Vaccines", 2019, Mol. Ther. Nucleic Acid, vol. 15, pp. 1-11. Briefly, the purified mRNAs were first diluted in sodium citrate buffer at pH=4 at a final concentration of 266 µg/ml. Separately, a mixture of the ionizable lipid of the invention:DSPC (Merk 850365P):cholesterol (Sigma C3045):DMG-PEG2000 (Cayman 33945-1) were dissolved into ethanol at the respective molar percentages of 50:10:38.5:1.5, and with a lipid-nitrogen-to-phosphate ratio (N:P) ratio of 5,5:1.
The mRNA aqueous solution was then carefully added to the ethanol solution, and the resulted solution was homogenized by pipetting up and down for 4-5 times. The resulting LNPs were immediately diluted 1:1 with Tris buffer and dialyzed overnight against Tris buffer containing 15% sucrose. The resulting LNP solution was then collected, and the encapsulated mRNA was assessed by Quant-IT® Ribogreen (Invitrogen R11490) following the manufacturer's instructions.
Female BALB/c mice (Charles River Laboratories), 8-10-week-old, weighting 18-23 g, were acclimatized to new conditions upon arrival to experimental facilities for 3-7 days. Housing conditions were room temperature 20-24 °C, humidity 50-70 %, and light intensity 60 lux with a light-dark cycle of 12 hours.
For Firefly Luciferase activity measurement in mice, LNPs produced as indicated above (ionizable lipid:helper lipid: sterol:PEG-modified lipid → 50:10:38.5:1.5) and containing 5 µg of the indicated mRNA in 50 µl final volume, were injected intramuscularly.
From 4 to 72 hours after RNA-LPN inoculation mice were anaesthetized by inhalation with 4% of isoflurane using a vaporizer. The maintenance of the anaesthesia was performed at 1.5% of isoflurane. Then, D-luciferin (Quimigen, 12507) was injected intraperitoneally at 150 mg/kg, normally ~200 µL of the stock at 15 mg/mL in PBS for a 20 g mouse. Luciferase images were acquired 10 minutes after luciferin inoculation using the IVIS Lumina XRMS Imaging System following manufacturer's instructions.

[4] = LNPs, standard formulation 50:10:38.5:1.5, DLS
[5] = Table 10, VC-LC-0431:DOPE:Cholesterol:DMG-PEG2000 50:10:38.5:1.5

| SMILES | Encaps. efficiency [1] [%] | P.D.I. [2, 4] | Particle size/ Ø (nm) [2, 4] [nm] | Apparent pKa [3] | Encapsulation efficiency (%) [1, 5] [%] | P.D.I. [2, 5] | Particle size/ Ø (nm) [2, 5] | Z Potential (± D.E.) [mV] [2, 5] [mV] | Encaps. efficiency (%) [1] [%] | Z Potential (± D.E.) [mV] [2, 4] [mV] | Total Flux (Female BALB/c mice; mice) [p·s^-1] | Total flux (p·s^-1) (Female BALB/c mice; Table 10, mice, VC-LC-0431:DOPE:Cholesterol:DMG-PEG2000 50:10:38.5:1.5) | protein expression in mice (transfection results) (Female BALB/c mice) |
| --- | --- | --- | --- | --- | --- | --- | --- | --- | --- | --- | --- | --- | --- |
| CCCCCCCCCCCCCCCCCC(=O)NC(CCSCCC(=O)OCCCCCCCCCCCCC)C(=O)NCCCN1CCOCC1 (stereo not drawn) [VC-LC-0374] |  | 0.16 | 174.7 |  |  |  |  |  | 70.37 | -9.62 |  |  | good transfection results |
| CCCCCCCC#CCOC(=O)CCSCCC(C(=O)NC1CCN(C)CC1)C(=O)OC(CCCCCCCC)CCCCCCCC (stereo not drawn) [VC-LC-0442] | 87.8 | 0.12 | 171.8 |  |  |  |  |  | 87.80 | -4.19 | 2.95E+07 |  |  |
| CCCCCCCCCCCCCCCCCC(=O)NC(CCSCCC(=O)OCC(CCCCCCCCCC)CCCCCCCCCCCC)C(=O)NCCCN1CCOCC1 (stereo not drawn) [VC-LC-0389] |  | 0.26 | 218 |  |  |  |  |  | 76.40 | -9.68 |  |  | good transfection results |
| CCCCCCCCCCCCC(CCCCCCCCCC)COC(=O)CCSCCC(NC(=O)C(CCCCCC)CCCCCCCC)C(=O)NCCN(CC)CC (stereo not drawn) [VC-LC-0487] | 62.43 | 0.17 | 156.3 |  |  |  |  |  | 62.43 | -9.59 | 6.9E+07 |  |  |
| CCCCCCCC/C=C\CCCCCCCCOC(=O)CCSCCC(NC(=O)CCCCCCC/C=C\CCCCCCCC)C(=O)NCCCN1CCOCC1 (stereo not drawn) [VC-LC-0355] | 81.6 | 0.3 | 242.2 |  |  |  |  |  | 81.58 | -4.71 | 2.39E+07 |  | good transfection results |
| CCCCCCCCCCC(CCCCCCCC)C(=O)NC(CCSCCC(=O)OCC(CCCCCC)CCCCCCCC)C(=O)NC1CCN(C)CC1 (stereo not drawn) [VC-LC-0557] | 77.2 | 0.11 | 142.5 |  |  |  |  |  | 77.19 | -6.12 | 4.3E+07 |  |  |
| CCCCCCCCC(CCCCCC)C(=O)NC(CCSCCC(=O)OCCCCCCCC(C)C)C(=O)NCCCN(C)C (stereo not drawn) [VC-LC-0101] | 96.0 |  |  |  |  |  |  |  | 96.01 | 0.00 | 1.05E+07 |  |  |
| CCCCCCCCC(CCCCCC)COC(=O)CCSCCC(C(=O)NC1CCN(C)CC1)C(=O)OC(CCCCCCCC)CCCCCCCC (stereo not drawn) [VC-LC-0439] | 91.1 | 0.1 | 144.8 |  |  |  |  |  | 91.14 | -6.48 | 2.39E+07 |  |  |
| CCCCCCCC/C=C\CCCCCCCC(=O)NC(CCSCCC(=O)OCC(CCCCCCCCCC)CCCCCCCCCCCC)C(=O)NC1CCN(C)CC1 (stereo not drawn) [VC-LC-0356] | 68.3 | 0.09 | 218.9 |  |  |  |  |  | 68.27 | -10.96 | 3.83E+07 |  |  |
| CCCCCCCCCCCCCOC(=O)CCSCCC(NC(=O)C(CCCCCCCC)CCCCCCCCCC)C(=O)NCC1CCN(C)CC1 (stereo not drawn) [VC-LC-0507] | 95.2 | 0.13 | 151.1 |  |  |  |  |  | 95.15 | -2.76 | 2.29E+07 |  |  |

More lines, main results first:

| Encaps. efficiency [1] [%] | P.D.I. [2, 4] | Particle size/ Ø (nm) [2, 4] [nm] | Apparent pKa [3] | Encapsulation efficiency (%) [1, 5] [%] | P.D.I. [2, 5] | Particle size/ Ø (nm) [2, 5] | Z Potential (± D.E.) [mV] [2, 5] [mV] | SMILES | Encaps. efficiency (%) [1] [%] | Z Potential (± D.E.) [mV] [2, 4] [mV] | Total Flux (Female BALB/c mice; mice) [p·s^-1] | Total flux (p·s^-1) (Female BALB/c mice; Table 10, mice, VC-LC-0431:DOPE:Cholesterol:DMG-PEG2000 50:10:38.5:1.5) | protein expression in mice (transfection results) (Female BALB/c mice) |
| --- | --- | --- | --- | --- | --- | --- | --- | --- | --- | --- | --- | --- | --- |
| 43.9 | 0.14 | 178 | 6.11 |  |  |  |  | CCCCCCCCOC(=O)CCSCC(CC(=O)NCCCn1ccnc1)C(=O)OC(CCCCCCCC)CCCCCCCC (stereo not drawn) [VC-LC-0307] | 43.89 | -15.15 | 1.47E+08 |  |  |
| 50.6 | 0.11 | 155.2 | 5.95 |  |  |  |  | CCCCCCCCCCC(CCCCCCCC)C(=O)NC(CCSCCC(=O)OCCCCCCCC(C)C)C(=O)NC1CCN(C)CC1 (stereo not drawn) [VC-LC-0558] | 50.58 | -6.62 | 7.9E07 |  |  |
| 60.4 | 0.11 | 196.6 | 5.77 | 60.4 | 0.114 | 196,6 nm | -0.281 | CCCCCCCCC(CCCCCC)COC(=O)CCSCCC(NC(=O)C(CCCCCC)CCCCCCCC)C(=O)NC1CCN(C)CC1 (stereo not drawn) [VC-LC-0431] | 60.4 | -0.28 | 9.92E+07 | 9.92E+07 |  |
| 85.3 | 0.13 | 176.7 | 6.90 |  |  |  |  | CCCCCCCC/C=C\CCCCCCCCOC(=O)CCSCC(CC(=O)NC1CCN(C)CC1)C(=O)OCC(CCCCCC)CCCCCCCC (stereo not drawn) [VC-LC-0539] | 85.33 | -1.24 | 3.6E+07 |  |  |
| 48.5 | 0.13 | 175.8 | 5.62 |  |  |  |  | CCCCCCCCC(CCCCCCCC)OC(=O)C(CSCCC(=O)OCCCCCCCC(C)C)CC(=O)NCCCn1ccnc1 (stereo not drawn) [VC-LC-0296] | 48.51 | -7.19 | 4.7E+07 |  |  |
| 59.92 | 0.16 | 190.5 | 6.06 |  |  |  |  | CCCCCCCCCCCCOC(=O)CCSCC(CC(=O)NCCCn1ccnc1)C(=O)OC(CCCCCCCC)CCCCCCCC (stereo not drawn) [VC-LC-0298] | 59.92 | -13.51 | 7.6E+07 |  |  |
| 76.5 | 0.10 | 167.4 | 6.75 |  |  |  |  | CCCCCCCCCCCCOC(=O)CCSCCC(C(=O)NC1CCN(C)CC1)C(=O)OC(CCCCCCCC)CCCCCCCC (stereo not drawn) [VC-LC-0440] | 76.52 | -3.61 | 2.42E+07 |  |  |
| 98.61 | 0.12 | 141.7 | 7.26 |  |  |  |  | CCCCCCCCCCC(CCCCCCCC)C(=O)NC(CCSCCC(=O)OCCCCCC(C)C)C(=O)NCC1CCN(C)CC1 (stereo not drawn) [VC-LC-0515] | 98.61 | 1.90 | 3.0E+07 |  |  |
| 30.22 | 0.17 | 145.5 |  |  |  |  |  | CCCCCCCCC(CCCCCCCC)OC(=O)C(CSCCC(=O)OCCCCCC(C)C)CC(=O)NCCCN1CCOCC1 (stereo not drawn) [VC-LC-0548] | 30.22 | -8.82 | 1.2E+08 |  |  |
|  | 0.22 | 196.2 |  |  |  |  |  | CCCCCCCCCCCCC(CCCCCCCCCC)COC(=O)CCSCC(CC(=O)NCCCN1CCOCC1)C(=O)OC(CCCCCCCC)CCCCCCCC (stereo not drawn) [VC-LC-0553] | 36.11 | -8.66 |  |  | good transfection results |
